Data set [1] is described as follows: Average size of liposomes made from cationic silyl lipids (Tables 1A, 1B). As to conditions: for Avg. Size: Table 1A, liposome formulations of the cationic silyl lipid only in Milli Q purified water; for Avg size: Table 1B, sila-DOTMA analog liposomes. It is filed as physicochemical. An excerpt: (§1) For colloidal dispersions, zeta potential is a useful measurement of the difference in electrokinetic potential between the dispersion medium and the stationary layer of fluid attached to the dispersed particle. The magnitude of the zeta potential indicates the degree of electrostatic repulsion between adjacent, similarly charged particles in a dispersion. A high zeta potential is an indicator of stability (resistance to aggregation). Both zeta potential and size can be determined using a zeta Potential Analyzer. Clogston J D et al., Methods Mol Biol. 2011; 697:63-70.
(§2) FIGS. 5A to 5C and TABLE 1A provide an illustration of such empirical determination: the effect of the length of the lipid tail, the end group, and the positioning of the silyl group. In this illustration, other properties of the lipid structure and liposome composition were kept constant. The liposome formulations just contained the cationic silyl lipids indicated, and Milli Q™ purified water.
(§3) FIGS. 7A to 7C and TABLE 1B provide another illustration of how structure of the silyl lipid can affect properties of nanoparticles.
(§4) Structural features such as tail length, positioning of the silicon group (n1, n2), and branching (as in 8,Si, (8)3-DOTMA) can influence liposome properties.

The nature of data set [2]: Average zeta potential of liposomes made from cationic silyl lipids (Tables 1A, 1B). It is filed as physicochemical.
Text: as §1, §2, §3, §4

Setting [3] is: Table 1A, liposome formulations of the cationic silyl lipid only in Milli Q purified water.
[4] abbreviates: Table 1B, sila-DOTMA analog liposomes, two values given.

Structures are written as SMILES. “And” between values parts separate entries of the source, which are not always exact repeats. Equal values may be shown once.

On to `C[N+](C)(C)CC(COC(=O)CCCCCCC[Si](C)(C)c1ccccc1)OC(=O)CCCCCCC[Si](C)(C)c1ccccc1` (stereo not drawn) [QP8SiPh], for which the “Avg. Size” value in data set [1] amounted to 21 nm. Moreover, the “Avg. zeta Potential” value in data set [2] (setting [3]) was 59 mV and 73 mV.

Take `C[N+](C)(C)CC(COC(=O)CCCCCCC[Si](C)(C)C1CCCCC1)OC(=O)CCCCCCC[Si](C)(C)C1CCCCC1` (stereo not drawn) [QP8SiCy]: the “Avg. Size” value in data set [1] was 29 nm. Besides, in data set [2] (setting [3]), the “Avg. zeta Potential” value is 57 mV and 71 mV.

Consider `CCCCCCCC[Si](C)(C)CCCCCCCCOCC(C[N+](C)(C)C)OCCCCCCCC[Si](C)(C)CCCCCCCC` (stereo not drawn) [8, Si, 8-DOTMA], for which, in data set [1], the Avg size amounted to 206 nm. Also, the Avg. zeta Potential in data set [2] (setting [4]) was 56 mV and 74 mV.

For `CCCCCCCC[Si](CCCCCCCC)(CCCCCCCC)CCCCCCCCOCC(C[N+](C)(C)C)OCCCCCCCC[Si](CCCCCCCC)(CCCCCCCC)CCCCCCCC` (stereo not drawn) [8, Si, (8)3-DOTMA], the Avg size in data set [1] was determined as 184 nm. In addition, in data set [2] (setting [4]), the Avg. zeta Potential is 64 mV.

Take `C[N+](C)(C)CC(COC(=O)CCCC[Si](C)(C)c1ccccc1)OC(=O)CCCC[Si](C)(C)c1ccccc1` (stereo not drawn) [QP5SiPh]: in data set [1], the “Avg. Size” value was 80 nm. In addition, the “Avg. zeta Potential” value in data set [2] (setting [3]) is on record as 62 mV.

On to `CCCCCCCCC[Si](C)(C)CCCCCCC(=O)OCC(C[N+](C)(C)C)OC(=O)CCCCCC[Si](C)(C)CCCCCCCCC` (stereo not drawn) [QP7Si9], for which, in data set [1], the “Avg. Size” value was 59 nm. Moreover, the “Avg. zeta Potential” value in data set [2] (setting [3]) worked out at 74 mV.

In data set [1], `CCCCCCCC[Si](C)(C)CCCCCCOCC(C[N+](C)(C)C)OCCCCCC[Si](C)(C)CCCCCCCC` (stereo not drawn) [6, Si, 8-DOTMA] displayed an Avg size of 216 nm. The compound further gave an Avg. zeta Potential in data set [2] (setting [4]) of 64 mV.

`CCCCCCCCCCC[Si](C)(C)CCCCC(=O)OCC(C[N+](C)(C)C)OC(=O)CCCC[Si](C)(C)CCCCCCCCCCC` (stereo not drawn) [QP5Si11]: in data set [1], the “Avg. Size” value is reported as 59 nm. The “Avg. zeta Potential” value in data set [2] (setting [3]) is on record as 60 mV.

For the compound `C[N+](C)(C)CC(COCCCCCCCC[Si](C)(C)c1ccccc1)OCCCCCCCC[Si](C)(C)c1ccccc1` (stereo not drawn) [8, Si, Ph-DOTMA], the Avg size in data set [1] was found to be 215 nm. For the same compound, the Avg. zeta Potential in data set [2] (setting [4]) is given as 62 mV.

`CCCCCC[Si](C)(C)CCCCCCCCCCOCC(C[N+](C)(C)C)OCCCCCCCCCC[Si](C)(C)CCCCCC` (stereo not drawn) [10, Si, 6-DOTMA]: the Avg size in data set [1] is recorded as 65 nm. In data set [2] (setting [4]), this compound displayed an Avg. zeta Potential of 52 mV.

As to `CCCC[Si](C)(C)CCCCCCOCC(C[N+](C)(C)C)OCCCCCC[Si](C)(C)CCCC` (stereo not drawn) [6, Si, 4-DOTMA], the Avg size in data set [1] is 79 nm. Besides, in data set [2] (setting [4]), the Avg. zeta Potential turned out to be 65 mV.

Take `CCCCCCCC[Si](C)(C)CCCCC(=O)OCC(C[N+](C)(C)C)OC(=O)CCCC[Si](C)(C)CCCCCCCC` (stereo not drawn) [QP5Si8]: in data set [1], the “Avg. Size” value is 38 nm. Also, the “Avg. zeta Potential” value in data set [2] (setting [3]) was 69 mV and 112 mV.
